In US9809586B2, “Inhibitors of collagen prolyl 4-hydroxylase” (WISCONSIN ALUMNI RESEARCH FOUNDATION, priority 2015, dated 2017):

Assays:
breast cancer = conditions: mouse model of breast cancer, Gilkes et al.; cited from earlier work
MDA-MB-231 cells = conditions: 500 μM; cited from earlier work
IRPs = experiment: Electrophoretic mobility shift assay for IRE-binding by IRPs from treated cells; type: cell-based, human; conditions: treated MDA-MB-231 cells, 24 h, radiolabeled RNA ligand
Method: The resultant pellets (˜50 μL) were washed with PBS and then lysed using a protocol described previously.^41 Briefly, cell pellets were resuspended in 200 μL of cell lysis buffer, which was 20 mM Hepes-HCl buffer, pH 7.4, containing sodium pyrophosphate (10 mM), sodium fluoride (50 mM), β-glycerophosphate (50 mM), EDTA (5 mM), GTP (1 mM), sodium orthovanadate (1 mM), benzamidine hydrochloride (2 mM), Nonidet NP-40 (0.5% v/v), p-nitrophenyl p′-guanidinobenzoate-HCl (25 μg/mL), DTT (1 mM), leupeptin (40 μg/mL), pepstatin (4 μg/mL), SBTI (100 μg/mL), MG132 (10 μM), PMSF (200 μM), and BHT (5 μg/mL) by vortexing and lysed on ice by vortexing every few min. After 15 min, the lysates were centrifuged at 14,000 rpm and the supernatants aliquoted and stored at −80° C. until analysis by an electrophoretic mobility shift assay (EMSA).
EMSAs were performed and quantified essentially as described previously.^42 Briefly [^32P]-L-ferritin IRE (1 nM RNA, specific radioactivity ˜7,000 dpm/fmol) was incubated with lysate protein (2.5 μg as determined by the Bradford assay) in binding buffer for 10 min on ice. Heparin was added (to 0.5 mg/mL), and the reaction mixture was incubated for an additional 5 min on ice before separating bound and free RNA on a nondenaturing polyacrylamide gel at ambient temperature.

human CP4H1 = biological target: T1, human CP4H1 (Homo sapiens, UniProt P13674); experiment: Assay of human CP4H1 activity in the presence of inhibitors; type: biochemical
T1 construct: made in house; host or cells: Origami B(DE3) Escherichia coli
Method: The catalytic activity of human CP4H1 was assayed as described previously.^35 Briefly, activity assays were carried out at 30° C. in 100 μL Tris-HCl buffer, pH 7.8, containing human CP4H1 (100 nM), inhibitor (0-500 μM), substrate (dansylGlyProProGlyOEt, 500 μM), FeSO4 (50 μM), BSA (1 mg/mL), catalase (0.1 mg/mL), sodium ascorbate (2 mM), DTT (100 μM), and α-ketoglutarate (100 μM). Reactions were pre-incubated with or without inhibitor for 2 min at 30° C., after which the reaction was initiated by the addition of α-ketoglutarate. After 15 min, reactions were quenched by boiling for 45 s and centrifuged at 10,000 g. The supernatant (20-50 μL) was injected into a Nucleodur® C18 Gravity reversed-phase column (4.6×250 mm, 5 μm particle size) from Macherey-Nagel (Bethlehem, Pa.). The column was eluted at 1 mL/min with a gradient (20 min) of aqueous acetonitrile (20-45% v/v) containing 0.1% v/v TFA. The absorbance of the eluent was monitored at 289 nm. All assays were performed in triplicate. Data are reported as activity relative to control reactions lacking inhibitor, where catalytic activity is determined from the percent conversion of substrate to product. Dose-response curves were generated for each inhibitor by plotting the relative activity versus the log of the inhibitor concentration. IC50-values for each inhibitor were interpolated from the data by non-linear regression using the sigmoidal dose-response function available in Prism.

human PHD2 = biological target: T2, human PHD2 (Homo sapiens, UniProt Q9GZT9); experiment: Assay of human PHD2 activity in the presence of inhibitors; type: biochemical; conditions: 10 μM compound
T2 construct: made in house
Method: The catalytic activity of human PHD2 was assayed as described previously.^36 Briefly, activity assays were carried out at 30° C. in 100 μL Tris-HCl buffer, pH 7.8, containing human NHis6-PHD2181-426 (5 μM), inhibitor (0-50 μM), substrate (HIF-1α peptide556-574, 50 μM), FeSO4 (50 μM), BSA (1 mg/mL), catalase (0.3 mg/mL), sodium ascorbate (2 mM), DTT (1 mM), and α-ketoglutarate (35 μM). Reactions mixtures were pre-incubated with or without inhibitor for 2 min at 30° C., after which the reaction was initiated by the addition of α-ketoglutarate. After 10 minutes, reactions were quenched by boiling for 60 s and centrifuged at 10,000 g. The supernatant (50 μL) was injected into a Nucleodur® C18 Gravity reversed-phase column (4.6×250 mm, 5 μm particle size) from Macherey-Nagel (Bethlehem, Pa.). The column was eluted at 1 mL/min with a gradient (34 min) of 5-56% aqueous acetonitrile containing 0.1% v/v TFA. The absorbance of the eluent was monitored at 218 nm. All assays were performed in triplicate. Data is reported as activity relative to control reactions lacking inhibitor, where activity is determined from the percent conversion of substrate to product.

[1] = cited from earlier work
[2] = titration of 20 μM FeSO4; bipy; read-out: Fe20-EC50; cited from earlier work

T1 sequence (P13674 18-534): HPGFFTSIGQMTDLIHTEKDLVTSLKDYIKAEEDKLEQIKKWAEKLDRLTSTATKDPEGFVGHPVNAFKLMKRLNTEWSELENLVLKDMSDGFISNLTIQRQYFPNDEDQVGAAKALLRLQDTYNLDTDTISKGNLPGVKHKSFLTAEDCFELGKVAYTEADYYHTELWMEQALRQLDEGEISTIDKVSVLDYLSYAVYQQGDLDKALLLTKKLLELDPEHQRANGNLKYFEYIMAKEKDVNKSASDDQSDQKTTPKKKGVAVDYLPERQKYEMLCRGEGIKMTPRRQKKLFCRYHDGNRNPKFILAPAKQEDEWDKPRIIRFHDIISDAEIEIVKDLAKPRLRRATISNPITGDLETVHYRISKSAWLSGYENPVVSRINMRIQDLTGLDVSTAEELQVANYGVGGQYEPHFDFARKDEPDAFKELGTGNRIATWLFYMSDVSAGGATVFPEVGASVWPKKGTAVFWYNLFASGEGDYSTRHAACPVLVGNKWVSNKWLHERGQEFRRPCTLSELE
T1 sequence (P07237 18-508 partner): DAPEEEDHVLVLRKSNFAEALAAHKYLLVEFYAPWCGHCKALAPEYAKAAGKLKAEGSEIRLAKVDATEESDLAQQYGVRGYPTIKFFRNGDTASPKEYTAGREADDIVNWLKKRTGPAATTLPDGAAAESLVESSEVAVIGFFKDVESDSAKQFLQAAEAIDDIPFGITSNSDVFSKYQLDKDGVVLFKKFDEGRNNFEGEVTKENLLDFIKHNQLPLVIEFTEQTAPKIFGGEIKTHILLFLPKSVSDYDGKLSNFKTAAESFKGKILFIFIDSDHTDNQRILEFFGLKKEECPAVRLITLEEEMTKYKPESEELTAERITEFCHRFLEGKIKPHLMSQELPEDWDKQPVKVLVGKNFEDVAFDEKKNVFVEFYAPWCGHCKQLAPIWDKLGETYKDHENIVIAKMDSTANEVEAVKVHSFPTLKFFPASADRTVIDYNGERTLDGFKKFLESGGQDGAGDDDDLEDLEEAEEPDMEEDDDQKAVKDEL
T2 sequence (Q9GZT9 181-426 limits assumed): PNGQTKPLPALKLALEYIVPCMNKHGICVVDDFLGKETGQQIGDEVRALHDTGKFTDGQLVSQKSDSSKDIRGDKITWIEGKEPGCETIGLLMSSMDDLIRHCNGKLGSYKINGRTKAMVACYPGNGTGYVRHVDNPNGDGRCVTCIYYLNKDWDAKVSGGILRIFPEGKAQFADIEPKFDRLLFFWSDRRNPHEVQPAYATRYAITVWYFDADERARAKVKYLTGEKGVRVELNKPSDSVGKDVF

| Inhibition of catalytic activity of human CP4H1 in initial screen (human CP4H1; 10 μM compound, 50 μM FeSO4) | IC50 (human CP4H1; dose-response, mean of three independent experiments) | Potency relative to pyoxDC (human CP4H1; from dose-response IC50 values) | Inhibition of human PHD2 in screen (human PHD2) | Structure (SMILES) | Tumor fibrosis and metastasis (breast cancer) | Collagen secretion (MDA-MB-231 cells) | RNA binding by IRPs (IRPs) | Heteroaryl pKa (ref.) ([1]; conjugate acid of pyridine (bipy) or the nonpyridyl ring) | pKa ([1]; conjugate acid of the entire compound, bipy) | EC50 [2] |
| --- | --- | --- | --- | --- | --- | --- | --- | --- | --- | --- |
| – | – | – | – | CCOC(=O)c1ccc(O)c(O)c1 [EDHB, Ethyl dihydroxybenzoate] | decreases tumor fibrosis and metastasis | diminish collagen secretion significantly | significant increases | – | – | – |
| inhibitors | 2.6 ± 0.1 µM | approximately 10 fold | only weakly | O=C(O)c1ccc(-c2ncc(C(=O)O)[nH]2)nc1 [pyimDC, 2-(5-Carboxy-1-H-imidazol-2-yl)pyridine-5-carboxylic Acid] | – | – | – | – | – | – |
| – | – | – | – | c1ccc(-c2ccccn2)nc1 [bipy, 2,2′-bipyridine, reference compound] | – | – | significant increases | 5.2 (48) | 4.3 | 43 ± 2 µM |
